{"source": "paper PMC12034907", "about": "(Journal of Clinical Pharmacology, 2024)", "key": {"CYP3A4 [1]": {"test_system": "CYP3A4"}, "[2]": {"experiment": "Clinical DDI study: safety and tolerability", "assay_type": "in vivo, human", "details": "for AEs leading to death / AEs leading to treatment discontinuation / Related AEs / Serious AEs / Severity of AE: Mild / Severity of AE: Moderate / Severity of AE: Severe / AEs: by period, safety population; for AEs: participants who experienced AEs"}, "CYP2C19": {"test_system": "CYP2C19", "details": "liver metabolism; cited from earlier work"}, "CYP3A4 [3]": {"test_system": "CYP3A4", "details": "liver metabolism; cited from earlier work"}, "CYP2C9": {"test_system": "CYP2C9", "details": "liver metabolism; cited from earlier work"}, "[4]": {"details": "cited from earlier work"}, "CYP3A": {"test_system": "CYP3A", "details": "cited from earlier work; for midazolam exposure relative to baseline exposure: studies with CYP3A inducers; for effect of CYP3A inhibitor on midazolam exposure: interaction studies"}, "[5]": {"details": "midazolam 5 mg + mavacamten 15 mg on day 17, geometric mean (geometric CV%)"}, "[6]": {"details": "midazolam 5 mg oral alone (day 1), geometric mean (geometric CV%)"}, "[7]": {"details": "with mavacamten vs midazolam alone"}}, "note": "Entries after “also recorded” stand apart in the source; their conditions may differ. Like-named read-outs stand apart in the source and are kept apart here. Marks after values point to notes of the source that are not given here."}
{"smiles": "OCc1ncc2n1-c1ccc(Cl)cc1C(c1ccccc1F)=NC2", "note": "[1′‐Hydroxymidazolam, 1′‐hydroxymidazolam]", "values": [{"measurement": "tmax, median (range)", "setting": "midazolam 5 mg + mavacamten 15 mg on day 17, n = 12", "value": "0.51 (0.50‐1.0) h"}, {"measurement": "AUC0-inf", "setting": "[5]", "value": "47.76 (36.3) (n = 7) ^b ng∙h/mL"}, {"measurement": "t1/2", "setting": "[5]", "value": "5.22 (29.9) (n = 7) ^b h"}, {"measurement": "tmax, median (range)", "setting": "midazolam 5 mg oral alone (day 1), n = 13", "value": "1.00 (0.50‐2.08) h"}, {"measurement": "AUC0-last", "setting": "midazolam 5 mg oral alone (day 1), n = 13, geometric mean (geometric CV%)", "value": "38.63 (22.2) ng∙h/mL"}, {"measurement": "AUC0-inf", "setting": "[6]", "value": "41.47 (24.1) (n = 10) ^b ng∙h/mL"}, {"measurement": "t1/2", "setting": "[6]", "value": "6.48 (24.7) (n = 10) ^b h"}, {"measurement": "increase in AUC0-inf", "setting": "CYP3A4 [1]; [7]", "value": 20, "unit": "%"}, {"measurement": "increase in AUC0-last", "setting": "CYP3A4 [1]; [7]", "value": 11, "unit": "%"}, {"measurement": "increase in Cmax", "setting": "CYP3A4 [1]; [7]", "value": 28, "unit": "%"}]}
{"smiles": "CC(C)n1c(=O)cc(N[C@@H](C)c2ccccc2)[nH]c1=O", "note": "[Mavacamten]", "values": [{"measurement": "AEs leading to death", "setting": "[2]", "value": "0 n (%)"}, {"measurement": "AEs leading to treatment discontinuation", "setting": "[2]", "value": "0 n (%)"}, {"measurement": "Related AEs", "setting": "[2]", "value": "5 (38.5) n (%)"}, {"measurement": "Serious AEs", "setting": "[2]", "value": "0 n (%)"}, {"measurement": "Severity of AE: Mild", "setting": "[2]", "value": "9 (69.2) n (%)"}, {"measurement": "Severity of AE: Moderate", "setting": "[2]", "value": "1 (7.7) n (%)"}, {"measurement": "Severity of AE: Severe", "setting": "[2]", "value": "0 n (%)"}, {"measurement": "tolerability", "setting": "[2]; healthy participants", "value": "well tolerated"}, {"measurement": "AEs", "setting": "[2]", "value": "9 (69.2) n (%)"}, {"measurement": "share of metabolism by CYP2C19", "setting": "CYP2C19", "value": 74, "unit": "%"}, {"measurement": "share of metabolism by CYP3A4", "setting": "CYP3A4 [3]", "value": 18, "unit": "%"}, {"measurement": "share of metabolism by CYP2C9", "setting": "CYP2C9", "value": 8, "unit": "%"}, {"measurement": "estimated oral bioavailability", "setting": "[4]", "value": "at least 85%"}, {"measurement": "median time to maximum plasma concentration (tmax)", "setting": "[4]", "value": "1 to 2", "unit": "h"}, {"measurement": "effect of mavacamten on midazolam exposure (CYP3A4 induction)", "setting": "CYP3A4 [1]; clinically relevant mavacamten exposures, healthy participants", "value": "negligible effect; also recorded: did not meet the criteria for induction"}]}
{"smiles": "Cc1ncc2n1-c1ccc(Cl)cc1C(c1ccccc1F)=NC2", "note": "[Midazolam]", "values": [{"measurement": "AEs leading to death", "setting": "[2]", "value": "0 n (%)"}, {"measurement": "AEs leading to treatment discontinuation", "setting": "[2]", "value": "0 n (%)"}, {"measurement": "Related AEs", "setting": "[2]", "value": "2 (15.4) n (%)"}, {"measurement": "Serious AEs", "setting": "[2]", "value": "0 n (%)"}, {"measurement": "Severity of AE: Mild", "setting": "[2]", "value": "3 (23.1) n (%)"}, {"measurement": "Severity of AE: Moderate", "setting": "[2]", "value": "0 n (%)"}, {"measurement": "Severity of AE: Severe", "setting": "[2]", "value": "0 n (%)"}, {"measurement": "AEs", "setting": "[2]", "value": "3 (23.1) n (%)"}, {"measurement": "Tmax", "setting": "human, plasma, oral, tmax, midazolam alone or with mavacamten", "value": "< 1", "unit": "h"}, {"measurement": "AUC(0-t)", "setting": "human, plasma, po, 5 mg", "value": 51, "unit": "ng·h/mL"}, {"measurement": "t1/2", "setting": "[5]", "value": "4.84 (34.4) (n = 9) ^a h"}, {"measurement": "t1/2", "setting": "[6]", "value": "5.28 (39.3) h"}, {"measurement": "decrease in AUC0-inf", "setting": "CYP3A4 [1]; [7]", "value": 13, "unit": "%"}, {"measurement": "decrease in AUC0-last", "setting": "CYP3A4 [1]; [7]", "value": 24, "unit": "%"}, {"measurement": "decrease in Cmax", "setting": "CYP3A4 [1]; [7]", "value": 7, "unit": "%"}]}
{"smiles": "NC(=O)N1c2ccccc2C=Cc2ccccc21", "note": "[carbamazepine]", "values": [{"measurement": "midazolam exposure relative to baseline exposure", "setting": "CYP3A", "value": "below 10%"}]}
{"smiles": "CC(=O)N1CCN(c2ccc(OCC3COC(Cn4ccnc4)(c4ccc(Cl)cc4Cl)O3)cc2)CC1", "note": "(centres unmarked) [ketoconazole]", "values": [{"measurement": "effect of CYP3A inhibitor on midazolam exposure", "setting": "CYP3A", "value": "increases in midazolam exposure"}]}
{"smiles": "O=C1NC(=O)C(c2ccccc2)(c2ccccc2)N1", "note": "[phenytoin]", "values": [{"measurement": "midazolam exposure relative to baseline exposure", "setting": "CYP3A", "value": "below 10%"}]}
{"smiles": "C[C@@H](c1ncncc1F)[C@](O)(Cn1cncn1)c1ccc(F)cc1F", "note": "[voriconazole]", "values": [{"measurement": "effect of CYP3A inhibitor on midazolam exposure", "setting": "CYP3A", "value": "increases in midazolam exposure"}]}
